Results: PubChem BioAssay (NCI)
“And” between values parts separate entries of the source, which are not always exact repeats. Equal values may be shown once.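 Each compound was tested at five concentrations against cells in 96-well plates for 48 hours. GI50: concentration for 50% inhibition of growth. TGI: concentration producing complete growth inhibition.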

Experiments:
Test in all cases: DTP human tumour cell line panel, 48 h
SK-MEL-2 melanoma = tested on: SK-MEL-2 melanoma
HOP-62 NSCLC = tested on: HOP-62 NSCLC
HCT-15 colon = tested on: HCT-15 colon
DU-145 prostate = tested on: DU-145 prostate
T-47D breast = tested on: T-47D breast
OVCAR-4 ovarian = tested on: OVCAR-4 ovarian
UACC-257 melanoma = tested on: UACC-257 melanoma
LOX IMVI melanoma = tested on: LOX IMVI melanoma
SK-OV-3 ovarian = tested on: SK-OV-3 ovarian
A498 renal = tested on: A498 renal

| SMILES | GI50 (SK-MEL-2 melanoma) | TGI (SK-MEL-2 melanoma) | GI50 (HOP-62 NSCLC) | TGI (HOP-62 NSCLC) | GI50 (HCT-15 colon) | TGI (HCT-15 colon) | GI50 (DU-145 prostate) | TGI (DU-145 prostate) | GI50 (T-47D breast) | TGI (T-47D breast) | GI50 (OVCAR-4 ovarian) | TGI (OVCAR-4 ovarian) | GI50 (UACC-257 melanoma) | TGI (UACC-257 melanoma) | GI50 (LOX IMVI melanoma) | TGI (LOX IMVI melanoma) | GI50 (SK-OV-3 ovarian) | TGI (SK-OV-3 ovarian) | GI50 (A498 renal) | TGI (A498 renal) |
| --- | --- | --- | --- | --- | --- | --- | --- | --- | --- | --- | --- | --- | --- | --- | --- | --- | --- | --- | --- | --- |
| COC(=O)Nc1nc2ccc(Sc3ccc(NC(=O)Nc4cc(C(F)(F)F)ccc4F)cc3)cc2[nH]1 | 3.15 µM | 10.6 µM | 3.73 µM | 9.56 µM | 1.62 µM | 8.19 µM | 4.15 µM | 8.27 µM | 4.43 µM | 11.2 µM | 3.64 µM | 10.7 µM | 4.63 µM | 25 µM | 1.5 µM | 6.16 µM | 5.1 µM | 14.3 µM | 2.71 µM | 10.7 µM |
| O=C(NO)C(O)C(O)C(O)C(O)CO (stereo not drawn) | > 100 µM and 76.6 µM | > 100 µM | > 92.5 µM and 68.3 µM | > 100 µM | > 100 µM | > 100 µM | 40 µM and > 100 µM | > 100 µM | > 100 µM | > 100 µM | > 100 µM | > 100 µM | > 100 µM | > 100 µM | > 100 µM and 94.8 µM | > 100 µM | > 100 µM | > 100 µM | > 100 µM | > 100 µM |
| COc1ncnc2c(-c3ccco3)cn(COCc3ccccc3)c12 | 48.8 µM | > 50 µM | > 50 µM | > 50 µM | – | – | > 50 µM | > 50 µM | 2.98 µM | > 50 µM | > 50 µM | > 50 µM | > 50 µM | > 50 µM | > 50 µM | > 50 µM | > 50 µM | > 50 µM | 0.697 µM | > 50 µM |
| Cc1cccc(CC(C)(C)C)c1NC(=O)C(=O)C(C(=O)c1ccc2ccccc2c1)C1OC(=O)c2ccccc21 (stereo not drawn) | – | 34.2 µM | – | 43.2 µM | – | 41.4 µM | – | – | – | – | – | > 100 µM | – | 26.2 µM | – | 43.9 µM | – | > 100 µM | – | 30.9 µM |
| Cc1cccc(N2C(=O)/C(=C/c3ccc(N(CCC#N)CCC#N)cc3C)N=C2c2cc([N+](=O)[O-])ccc2Cl)c1 | – | > 100 µM | – | > 100 µM | – | > 100 µM | – | – | – | – | – | > 100 µM | – | > 100 µM | – | – | – | > 100 µM | – | > 100 µM |
| CCOC(=N)CC(=O)NC(C)c1ccccc1 (stereo not drawn) | – | > 100 µM | – | > 100 µM | – | > 100 µM | – | – | – | – | – | > 100 µM | – | > 100 µM | – | > 100 µM | – | > 100 µM | – | > 100 µM |
| O=C1c2cccc3cccc(c23)C(=O)N1CCCN1CCN(CCCN2C(=O)c3cccc4cccc(c34)C2=O)CC1 | – | > 100 µM | – | > 100 µM | – | > 100 µM | – | – | – | – | – | > 100 µM | – | > 100 µM | – | > 100 µM | – | > 100 µM | – | > 100 µM |
| C=C(C)[C@]12CC(C)C34OC(/C=C\C=C\CCCCCCCCC)(O[C@@H]1[C@@H]3[C@@H]1O[C@]1(CO)[C@@H](O)[C@]1(O)C(=O)C(C)=C[C@@H]41)O2 (stereo partly drawn) | – | – | – | – | – | 25.4 µM | – | 22.1 µM | – | 26.5 µM | – | 22.6 µM | – | 28.5 µM | 1.48 µM | 3.88 µM | – | 35.1 µM | – | – |
| CCN1CC2(C)CC[C@@H](OC)C34[C@@H]2[C@H](OC(C)=O)C2(OCO[C@@]25C[C@H](OC)C2C[C@]3(O)[C@@H]5[C@H]2O)[C@H]14 | – | > 100 µM | – | > 100 µM | – | – | – | – | – | – | – | > 100 µM | – | > 100 µM | – | > 100 µM | – | – | – | – |
| CCSc1nc(N)c2cnn(C)c2n1 | > 100 µM | > 100 µM | – | – | 32 µM | > 100 µM | 40 µM | > 100 µM | 0.0485 µM | > 100 µM | 81.2 µM | > 100 µM | 67.1 µM | > 100 µM | 33 µM | > 100 µM | 54.8 µM | > 100 µM | 3.26 µM | 21.5 µM |
| Cn1c(COC(=O)NCCN2CCOCC2)nc2c(N3CCOCC3)nc(-c3ccccc3)nc21 | 1.65 µM | 3.2 µM | 1.29 µM | 3.3 µM | 0.46 µM | 1.87 µM | 1.25 µM | 2.68 µM | – | – | 1.11 µM | 2.53 µM | 1.44 µM | 3.16 µM | 0.256 µM | 1.1 µM | 4.79 µM | 16.1 µM | 1.44 µM | 2.83 µM |
| C/C(=N\NC(=S)N1CCC(C2CCN(C(=S)N/N=C(\C)c3ccccn3)CC2)CC1)c1ccccn1 | – | – | – | > 100 µM | – | – | – | – | – | – | – | > 100 µM | – | > 100 µM | – | > 100 µM | – | > 100 µM | – | > 100 µM |
| O=C1CC2Sc3ccccc3N=C2N1c1ccc(Cl)cc1Cl (stereo not drawn) | – | > 100 µM | – | > 100 µM | – | – | – | – | – | – | – | > 100 µM | – | > 100 µM | – | > 100 µM | – | – | – | – |
| O=C1/C(=C/c2ccccc2)CN(C(=O)OCC(Cl)(Cl)Cl)C/C1=C\c1ccccc1 | – | 23.5 µM | – | – | – | 4.32 µM | – | – | – | – | – | – | – | 4.48 µM | – | 2.06 µM | – | 24.6 µM | – | 6.29 µM |
| Cc1ns/c(=N\C(=S)N(C)C)n1C | – | > 100 µM | – | > 100 µM | – | > 100 µM | – | – | – | – | – | > 100 µM | – | > 100 µM | – | – | – | > 100 µM | – | > 100 µM |
| CCOC(=O)C1=C(c2ccccc2)N(Cc2ccccc2)C2(O)C=CC(=O)C3C(=O)N(c4ccccc4)C(=O)C132 (stereo not drawn) | – | – | 2.67 µM | 6.56 µM | 1.7 µM | 3.67 µM | 1.65 µM | 3.92 µM | 1.67 µM | 4.44 µM | 2.94 µM | 10.8 µM | 2.82 µM | 8.06 µM | 1.34 µM | 2.67 µM | 3.29 µM | 10.7 µM | 1.62 µM | 3.12 µM |
| Cc1nc(C(N)=S)sc1C(=O)CC(=O)C(=O)Nc1cccc(Cl)c1C | – | > 100 µM | – | > 100 µM | – | > 100 µM | – | – | – | > 100 µM | – | > 100 µM | – | > 100 µM | – | > 100 µM | – | > 100 µM | – | > 100 µM |
| CCCCCCN1C(=O)CN=C1Nc1ccc2cc3ccc(NC4=NCC(=O)N4CCCCCC)cc3nc2c1 | 2.79 µM | 8.45 µM | – | – | – | – | 1.94 µM | 4.21 µM | 1.71 µM | 4.97 µM | 1.66 µM | 4.01 µM | 3.34 µM | 9.74 µM | – | – | 11.6 µM | 28.9 µM | 15.9 µM | 32.6 µM |
